From ChEMBL document CHEMBL5126592, “Design, synthesis and activity against drug-resistant bacteria evaluation of C-20, C-23 modified 5-O-mycaminosyltylonolide derivatives” (Eur J Med Chem, 2022)
Converted amounts (≈) assume the structure as drawn.

Columns and labels:
Format in all cases: functional
Conditions in all cases: time 16-20 hrs
[1] = system: Cronobacter sakazakii; experiment: Antibacterial activity against Cronobacter sakazakii ATCC 29544 incubated for 16 to 20 hrs by broth microdilution method
[2] = system: Enterococcus faecium; experiment: Antibacterial activity against Enterococcus faecium incubated for 16 to 20 hrs by broth microdilution method
[3] = system: Staphylococcus aureus; experiment: Antibacterial activity against Staphylococcus aureus ATCC 25923 incubated for 16 to 20 hrs by broth microdilution method
[4] = system: Staphylococcus aureus; experiment: Antibacterial activity against Staphylococcus aureus incubated for 16 to 20 hrs by broth microdilution method
[5] = system: Streptococcus dysgalactiae; experiment: Antibacterial activity against Streptococcus dysgalactiae incubated for 16 to 20 hrs by broth microdilution method
[6] = system: Pseudomonas aeruginosa; experiment: Antibacterial activity against Pseudomonas aeruginosa LTP-3 incubated for 16 to 20 hrs by broth microdilution method
[7] = system: Escherichia coli; experiment: Antibacterial activity against Escherichia coli incubated for 16 to 20 hrs by broth microdilution method
[8] = system: Escherichia coli; experiment: Antibacterial activity against Escherichia coli ATCC 25922 incubated for 16 to 20 hrs by broth microdilution method
[9] = system: Staphylococcus chromogenes; experiment: Antibacterial activity against Staphylococcus chromogenes incubated for 16 to 20 hrs by broth microdilution method
[10] = system: Klebsiella pneumoniae; experiment: Antibacterial activity against Klebsiella pneumoniae ATCC 13883 incubated for 16 to 20 hrs by broth microdilution method

MIC [1] [µg/mL]	MIC [3] [µg/mL]	MIC [8] [µg/mL]	MIC [10] [µg/mL]	Compound	MIC [2] [µg/mL]	MIC [4] [µg/mL]	MIC [5] [µg/mL]	MIC [6] [µg/mL]	MIC [7] [µg/mL]	MIC [9] [µg/mL]
16 (≈ 20.6 µM)	4 (≈ 5.15 µM)	16 (≈ 20.6 µM)	16 (≈ 20.6 µM)	CCCN1C[C@H](C)[C@@H](O)[C@](C)(O)[C@@H](CC)OC(=O)[C@H](C)[C@@H](O[C@H]2C[C@](C)(OC)[C@H](O)[C@@H](C)O2)[C@H](C)[C@@H](O[C@@H]2O[C@H](C)C[C@H](N(C)C)[C@H]2O)[C@](C)(O)C[C@H]1C	32 (≈ 41.2 µM)	8 (≈ 10.3 µM)	32 (≈ 41.2 µM)	32 (≈ 41.2 µM)	16 (≈ 20.6 µM)	8 (≈ 10.3 µM)
32 (≈ 31.7 µM)	2 (≈ 1.98 µM)	8 (≈ 7.92 µM)	8 (≈ 7.92 µM)	CC[C@H]1OC(=O)C[C@@H](O)[C@H](C)[C@@H](O[C@@H]2O[C@H](C)[C@@H](O)[C@H](N(C)C)[C@H]2O)[C@@H](CCN(Cc2ccc(OC)cc2)Cc2cn(-c3cnc4ccccc4c3)nn2)C[C@@H](C)C(=O)/C=C/C(C)=C/[C@@H]1CN1CCC(O)CC1	–	–	–	–	–	–
32 (≈ 32.6 µM)	1 (≈ 1.02 µM)	4 (≈ 4.07 µM)	8 (≈ 8.14 µM)	CC[C@H]1OC(=O)C[C@@H](O)[C@H](C)[C@@H](O[C@@H]2O[C@H](C)[C@@H](O)[C@H](N(C)C)[C@H]2O)[C@@H](CCN(Cc2cn(-c3cnc4ccccc4c3)nn2)Cc2ccco2)C[C@@H](C)C(=O)/C=C/C(C)=C/[C@@H]1CN1CCCCCCC1	–	–	–	–	–	–
16 (≈ 16 µM)	2 (≈ 2.01 µM)	32 (≈ 32.1 µM)	16 (≈ 16 µM)	CC[C@H]1OC(=O)C[C@@H](O)[C@H](C)[C@@H](O[C@@H]2O[C@H](C)[C@@H](O)[C@H](N(C)C)[C@H]2O)[C@@H](CCN(Cc2cn(-c3cnc4ccccc4c3)nn2)Cc2ccco2)C[C@@H](C)C(=O)/C=C/C(C)=C/[C@@H]1CI	–	–	–	–	–	–
16 (≈ 17.3 µM)	1 (≈ 1.08 µM)	8 (≈ 8.66 µM)	4 (≈ 4.33 µM)	CC[C@H]1OC(=O)C[C@@H](O)[C@H](C)[C@@H](O[C@@H]2O[C@H](C)[C@@H](O)[C@H](N(C)C)[C@H]2O)[C@@H](CCN(Cc2ccccc2)Cc2cn(-c3cnc4ccccc4c3)nn2)C[C@@H](C)C(=O)/C=C/C(C)=C/[C@@H]1CN(C)C	–	–	–	–	–	–
16 (≈ 15.5 µM)	1 (≈ 0.969 µM)	8 (≈ 7.75 µM)	16 (≈ 15.5 µM)	CC[C@H]1OC(=O)C[C@@H](O)[C@H](C)[C@@H](O[C@@H]2O[C@H](C)[C@@H](O)[C@H](N(C)C)[C@H]2O)[C@@H](CCN(Cc2ccc(C(F)(F)F)cc2)Cc2cn(-c3cnc4ccccc4c3)nn2)C[C@@H](C)C(=O)/C=C/C(C)=C/[C@@H]1CN1CCCCC1	–	–	–	–	–	–
8 (≈ 8.4 µM)	0.25 (≈ 0.263 µM)	8 (≈ 8.4 µM)	8 (≈ 8.4 µM)	CC[C@H]1OC(=O)C[C@@H](O)[C@H](C)[C@@H](O[C@@H]2O[C@H](C)[C@@H](O)[C@H](N(C)C)[C@H]2O)[C@@H](CCN(Cc2ccccc2)Cc2cn(-c3cnc4ccccc4c3)nn2)C[C@@H](C)C(=O)/C=C/C(C)=C/[C@@H]1CN(CC)CC	–	–	–	–	–	–
16 (≈ 16.6 µM)	0.25 (≈ 0.259 µM)	8 (≈ 8.29 µM)	32 (≈ 33.2 µM)	CC[C@H]1OC(=O)C[C@@H](O)[C@H](C)[C@@H](O[C@@H]2O[C@H](C)[C@@H](O)[C@H](N(C)C)[C@H]2O)[C@@H](CCN(Cc2ccc(C(F)(F)F)cc2)Cc2cn(-c3cnc4ccccc4c3)nn2)C[C@@H](C)C(=O)/C=C/C(C)=C/[C@@H]1CO	–	–	–	–	–	–
32 (≈ 30.9 µM)	2 (≈ 1.93 µM)	16 (≈ 15.4 µM)	32 (≈ 30.9 µM)	CC[C@H]1OC(=O)C[C@@H](O)[C@H](C)[C@@H](O[C@@H]2O[C@H](C)[C@@H](O)[C@H](N(C)C)[C@H]2O)[C@@H](CCN(Cc2ccc(OC)cc2)Cc2cn(-c3cnc4ccccc4c3)nn2)C[C@@H](C)C(=O)/C=C/C(C)=C/[C@@H]1CI	–	–	–	–	–	–
32 (≈ 36.1 µM)	0.125 (≈ 0.141 µM)	8 (≈ 9.02 µM)	16 (≈ 18 µM)	CC[C@H]1OC(=O)C[C@@H](O)[C@H](C)[C@@H](O[C@@H]2O[C@H](C)[C@@H](O)[C@H](N(C)C)[C@H]2O)[C@@H](CCN(Cc2cn(-c3cnc4ccccc4c3)nn2)Cc2ccco2)C[C@@H](C)C(=O)/C=C/C(C)=C/[C@@H]1CO	–	–	–	–	–	–
32 (≈ 31.7 µM)	0.5 (≈ 0.496 µM)	8 (≈ 7.93 µM)	4 (≈ 3.97 µM)	CC[C@H]1OC(=O)C[C@@H](O)[C@H](C)[C@@H](O[C@@H]2O[C@H](C)[C@@H](O)[C@H](N(C)C)[C@H]2O)[C@@H](CCN(Cc2ccc(OC)cc2)Cc2cn(-c3cnc4ccccc4c3)nn2)C[C@@H](C)C(=O)/C=C/C(C)=C/[C@@H]1CN1CCCCCC1	–	–	–	–	–	–
32 (≈ 33.5 µM)	0.25 (≈ 0.262 µM)	8 (≈ 8.38 µM)	32 (≈ 33.5 µM)	CC[C@H]1OC(=O)C[C@@H](O)[C@H](C)[C@@H](O[C@@H]2O[C@H](C)[C@@H](O)[C@H](N(C)C)[C@H]2O)[C@@H](CCN(Cc2cn(-c3cnc4ccccc4c3)nn2)Cc2ccco2)C[C@@H](C)C(=O)/C=C/C(C)=C/[C@@H]1CN1CCCCC1	–	–	–	–	–	–
8 (≈ 8.49 µM)	1 (≈ 1.06 µM)	4 (≈ 4.25 µM)	16 (≈ 17 µM)	CC[C@H]1OC(=O)C[C@@H](O)[C@H](C)[C@@H](O[C@@H]2O[C@H](C)[C@@H](O)[C@H](N(C)C)[C@H]2O)[C@@H](CCN(Cc2cn(-c3cnc4ccccc4c3)nn2)Cc2ccco2)C[C@@H](C)C(=O)/C=C/C(C)=C/[C@@H]1CN(CC)CC	–	–	–	–	–	–
16 (≈ 16.5 µM)	4 (≈ 4.12 µM)	8 (≈ 8.25 µM)	16 (≈ 16.5 µM)	CC[C@H]1OC(=O)C[C@@H](O)[C@H](C)[C@@H](O[C@@H]2O[C@H](C)[C@@H](O)[C@H](N(C)C)[C@H]2O)[C@@H](CCN(Cc2cn(-c3cnc4ccccc4c3)nn2)Cc2ccco2)C[C@@H](C)C(=O)/C=C/C(C)=C/[C@@H]1CN1CCC(O)CC1	–	–	–	–	–	–
16 (≈ 15.7 µM)	1 (≈ 0.978 µM)	4 (≈ 3.91 µM)	16 (≈ 15.7 µM)	CC[C@H]1OC(=O)C[C@@H](O)[C@H](C)[C@@H](O[C@@H]2O[C@H](C)[C@@H](O)[C@H](N(C)C)[C@H]2O)[C@@H](CCN(Cc2ccc(OC)cc2)Cc2cn(-c3cnc4ccccc4c3)nn2)C[C@@H](C)C(=O)/C=C/C(C)=C/[C@@H]1CN1CCCCCCC1	–	–	–	–	–	–
32 (≈ 33.5 µM)	2 (≈ 2.1 µM)	32 (≈ 33.5 µM)	32 (≈ 33.5 µM)	CC[C@H]1OC(=O)C[C@@H](O)[C@H](C)[C@@H](O[C@@H]2O[C@H](C)[C@@H](O)[C@H](N(C)C)[C@H]2O)[C@@H](CCN(Cc2ccc(NC(C)=O)cc2)Cc2cn(-c3cnc4ccccc4c3)nn2)C[C@@H](C)C(=O)/C=C/C(C)=C/[C@@H]1CO	–	–	–	–	–	–
16 (≈ 17.5 µM)	2 (≈ 2.18 µM)	8 (≈ 8.73 µM)	8 (≈ 8.73 µM)	CC[C@H]1OC(=O)C[C@@H](O)[C@H](C)[C@@H](O[C@@H]2O[C@H](C)[C@@H](O)[C@H](N(C)C)[C@H]2O)[C@@H](CCN(C)Cc2cn(-c3cnc4ccccc4c3)nn2)C[C@@H](C)C(=O)/C=C/C(C)=C/[C@@H]1CN1CC(C)CC(C)C1 (some centres not stated)	–	–	–	–	–	–
16 (≈ 16.3 µM)	0.5 (≈ 0.509 µM)	4 (≈ 4.07 µM)	8 (≈ 8.14 µM)	CC[C@H]1OC(=O)C[C@@H](O)[C@H](C)[C@@H](O[C@@H]2O[C@H](C)[C@@H](O)[C@H](N(C)C)[C@H]2O)[C@@H](CCN(Cc2ccc(OC)cc2)Cc2cn(-c3cnc4ccccc4c3)nn2)C[C@@H](C)C(=O)/C=C/C(C)=C/[C@@H]1CN(CC)CC	–	–	–	–	–	–
16 (≈ 16.3 µM)	2 (≈ 2.04 µM)	16 (≈ 16.3 µM)	16 (≈ 16.3 µM)	CC[C@H]1OC(=O)C[C@@H](O)[C@H](C)[C@@H](O[C@@H]2O[C@H](C)[C@@H](O)[C@H](N(C)C)[C@H]2O)[C@@H](CCN(Cc2cn(-c3cnc4ccccc4c3)nn2)Cc2ccco2)C[C@@H](C)C(=O)/C=C/C(C)=C/[C@@H]1CN1CC(C)CC(C)C1 (some centres not stated)	–	–	–	–	–	–
32 (≈ 33.5 µM)	1 (≈ 1.05 µM)	8 (≈ 8.38 µM)	8 (≈ 8.38 µM)	CC[C@H]1OC(=O)C[C@@H](O)[C@H](C)[C@@H](O[C@@H]2O[C@H](C)[C@@H](O)[C@H](N(C)C)[C@H]2O)[C@@H](CCN(Cc2ccc(OC)cc2)Cc2cn(-c3cnc4ccccc4c3)nn2)C[C@@H](C)C(=O)/C=C/C(C)=C/[C@@H]1CN(C)C	–	–	–	–	–	–
16 (≈ 18.3 µM)	0.5 (≈ 0.571 µM)	8 (≈ 9.13 µM)	8 (≈ 9.13 µM)	CCCN(C)C[C@H]1/C=C(C)/C=C/C(=O)[C@H](C)C[C@H](CCN(C)Cc2cn(-c3cnc4ccccc4c3)nn2)[C@H](O[C@@H]2O[C@H](C)[C@@H](O)[C@H](N(C)C)[C@H]2O)[C@@H](C)[C@H](O)CC(=O)O[C@@H]1CC	–	–	–	–	–	–
16 (≈ 17.5 µM)	0.5 (≈ 0.547 µM)	4 (≈ 4.38 µM)	8 (≈ 8.75 µM)	CC[C@H]1OC(=O)C[C@@H](O)[C@H](C)[C@@H](O[C@@H]2O[C@H](C)[C@@H](O)[C@H](N(C)C)[C@H]2O)[C@@H](CCN(Cc2cn(-c3cnc4ccccc4c3)nn2)Cc2ccco2)C[C@@H](C)C(=O)/C=C/C(C)=C/[C@@H]1CN(C)C	–	–	–	–	–	–
8 (≈ 8.26 µM)	1 (≈ 1.03 µM)	4 (≈ 4.13 µM)	4 (≈ 4.13 µM)	CC[C@H]1OC(=O)C[C@@H](O)[C@H](C)[C@@H](O[C@@H]2O[C@H](C)[C@@H](O)[C@H](N(C)C)[C@H]2O)[C@@H](CCN(Cc2cn(-c3cnc4ccccc4c3)nn2)Cc2ccco2)C[C@@H](C)C(=O)/C=C/C(C)=C/[C@@H]1CN1CCCCCC1	–	–	–	–	–	–

Compound	MIC [1] [µg/mL]	MIC [3] [µg/mL]	MIC [8] [µg/mL]	MIC [10] [µg/mL]	MIC [2] [µg/mL]	MIC [4] [µg/mL]	MIC [5] [µg/mL]	MIC [6] [µg/mL]	MIC [7] [µg/mL]	MIC [9] [µg/mL]
NC[C@H]1O[C@H](O[C@H]2[C@H](O)[C@@H](O[C@H]3O[C@H](CO)[C@@H](O)[C@H](N)[C@H]3O)[C@H](N)C[C@@H]2N)[C@H](N)C[C@@H]1O [TOBRAMYCIN]	16 (≈ 34.2 µM)	8 (≈ 17.1 µM)	8 (≈ 17.1 µM)	8 (≈ 17.1 µM)	32 (≈ 68.4 µM)	1 (≈ 2.14 µM)	16 (≈ 34.2 µM)	32 (≈ 68.4 µM)	> 32	2 (≈ 4.28 µM)
CN[C@H](CC(C)C)C(=O)N[C@H]1C(=O)N[C@@H](CC(N)=O)C(=O)N[C@H]2C(=O)N[C@H]3C(=O)N[C@H](C(=O)N[C@H](C(=O)O)c4cc(O)cc(O)c4-c4cc3ccc4O)[C@H](O)c3ccc(c(Cl)c3)Oc3cc2cc(c3O[C@@H]2O[C@H](CO)[C@@H](O)[C@H](O)[C@H]2O[C@H]2C[C@](C)(N)[C@H](O)[C@H](C)O2)Oc2ccc(cc2Cl)[C@H]1O [VANCOMYCIN]	32 (≈ 22.1 µM)	0.25 (≈ 0.173 µM)	32 (≈ 22.1 µM)	32 (≈ 22.1 µM)	16 (≈ 11 µM)	–	16 (≈ 11 µM)	32 (≈ 22.1 µM)	> 32	8 (≈ 5.52 µM)
